The structures appear in SMILES notation.

The assay deals with T1, human KDR enzyme (Homo sapiens, UniProt P35968).
T1 construct: The cytoplasmic domain of human KDR enzyme is cloned in the form of a GST fusion; GST; made in house; host or cells: SF21 insect cells (baculovirus, pFastBac)
T1 sequence (P35968 786-1356 limits assumed): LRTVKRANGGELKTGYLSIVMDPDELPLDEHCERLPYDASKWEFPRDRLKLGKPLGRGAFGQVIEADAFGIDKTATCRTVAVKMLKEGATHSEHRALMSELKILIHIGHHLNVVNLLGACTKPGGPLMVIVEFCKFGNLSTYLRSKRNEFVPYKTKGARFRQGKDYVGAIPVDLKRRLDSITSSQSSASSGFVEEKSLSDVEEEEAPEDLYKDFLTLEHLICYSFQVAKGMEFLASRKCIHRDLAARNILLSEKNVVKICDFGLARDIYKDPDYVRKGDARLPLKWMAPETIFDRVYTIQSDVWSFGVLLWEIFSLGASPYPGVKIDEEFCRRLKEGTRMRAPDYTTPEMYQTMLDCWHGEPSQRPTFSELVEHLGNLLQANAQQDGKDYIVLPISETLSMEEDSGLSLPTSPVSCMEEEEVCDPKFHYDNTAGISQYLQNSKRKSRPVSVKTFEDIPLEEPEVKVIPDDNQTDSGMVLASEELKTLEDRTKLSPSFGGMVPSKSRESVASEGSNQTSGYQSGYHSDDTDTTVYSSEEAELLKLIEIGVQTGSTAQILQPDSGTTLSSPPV
Briefly: Phosphorylation of the substrate PLCγ by the enzyme KDR in vitro (flashplate technique). The note with it: Table VII, degrees of activity by IC50 range; read-out: Activity. The class given is biochemical. In a few lines: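 GST-fused human KDR cytoplasmic domain (Sf21 baculovirus, ~60% pure; 100 ng/well) phosphorylating 2 μg GST-PLCγ SH2-SH3 fragment in MOPS pH 7.2 with MgCl2/MnCl2, 1 h at 37° C. Started with γ33P-ATP plus cold ATP (2 μM in start solution); flashplate radioactivity. % inhibition vs no-compound control; IC50 from dose-response curves.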
In the case of `O=C(Oc1cc(-c2nc3ccccc3[nH]2)[nH]n1)c1ccccc1` [Example 217, Benzoic acid 5-(1H-benzoimidazol-2-yl)-1H-pyrazol-3-yl ester], the IC50 lay in the range of 0.3 to 3 µM.

Take `O=C(Oc1cc(-c2nc3ccccc3[nH]2)[nH]n1)c1c(F)c(F)c(F)c(F)c1F` [Example 220, 2,3,4,5,6-Pentafluoro-benzoic acid 5-(1H-benzoimidazol-2-yl)-1H-pyrazol-3-yl ester]: the IC50 was greater than 3 µM.

For `O=C(NCc1cc2ccccc2s1)c1ccc2[nH]c(-c3n[nH]c4ccccc34)nc2c1` [Example 54, 2-(1H-Indazol-3-yl)-1H-benzoimidazole-5-carboxylic acid (benzo[b]thiophen-2-ylmethyl)-amide], the IC50 is 0.3 to 3 µM.

These data come from patent US20050009894A1 (Aventis Pharma S.A., priority 2001, published 2005).
